Data taken from US6818396B1, “Process for determination of the activity of a substance using an in vitro functional test” (priority 2000, dated 2004).

Legend:
TEM-1 beta-lactamase = target: T1, TEM-1 beta-lactamase (Escherichia coli, UniProt P62593); assay type: biochemical; conditions: for reduction of the TEM-1 activity: inhibitor 21.5 μM final
T1 construct: made in house
Procedure: A screening of new TEM-1 ? -lactamase inhibitors was carried out by the process of the invention. This enzyme was expressed in vitro as described by Zubay by using 300 μg of mRNA in a final translation volume of 5 ml. […] Then 3 μl of the translation mixture were added in each microtitration plaque well and the mixture was incubated 3 minutes at 25° C. The volume was then completed to 58 μl with a revelation solution (final concentration: NaP 40 mM pH 7.0, 100 μg/ml of nitrocephine and 0.25 mM DNSO). The reaction was followed by spectrophotometry at 486 nm. Three controls were carried out: one without translation extract (therefore without enzyme), one with the substrate alone, and one without any potential inhibitor.

native TEM-1 enzyme = target: T2, native TEM-1 enzyme (Escherichia coli, UniProt P62593); experiment: Characterization of inhibitor on native TEM-1 enzyme expressed in vitro, nitrocephine test; assay type: biochemical; conditions: read-out: inhibition of native TEM-1 enzyme
T2 construct: made in house
Procedure: For this 5 μl of a translation mixture expressing either the native enzyme or one of the two mutants were separately incubated at 25° C. for 3 minutes in a final volume of 500 μl of buffer I (final concentration: NaP 50 mM pH 7.0, 1.5 μM potential inhibitor #1). Then 100 μg/ml of nitrocephine and 0.25 mM final of DMSO were added, and the reaction was followed by spectrophotometry at 486 nm. The obtained results were expressed in maximum activity percentage measured on the enzyme in the absence of inhibitor.

T1 sequence (P62593 24-286 limits assumed): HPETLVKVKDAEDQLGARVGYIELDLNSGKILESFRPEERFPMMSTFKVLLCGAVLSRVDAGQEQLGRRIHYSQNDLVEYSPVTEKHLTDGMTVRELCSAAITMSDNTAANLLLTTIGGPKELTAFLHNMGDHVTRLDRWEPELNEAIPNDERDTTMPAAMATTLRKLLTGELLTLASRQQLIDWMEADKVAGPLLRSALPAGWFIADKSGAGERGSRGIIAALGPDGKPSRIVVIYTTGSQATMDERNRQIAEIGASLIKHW
T2 sequence (P62593 24-286 limits assumed): as above

Row | SMILES | reduction of the TEM-1 activity versus control without inhibitor (TEM-1 beta-lactamase; inhibitor 0.4 μM final, 3 minutes at 25° C. preincubation) [%] | reduction of the TEM-1 activity (TEM-1 beta-lactamase) [%] | inhibition at 1.5 µM (native TEM-1 enzyme) [%]
1 | O=C(O)[C@H]1/C(=C/CO)O[C@@H]2CC(=O)N21 [inhibitor #1, clavulanic acid] | 52 | 80 | 87
2 | CC1(C)[C@H](C(=O)O)N2C(=O)C[C@H]2S1(=O)=O [inhibitor #2, sulbactam] | – | 73 | –
